Test results as given in patent publication US20170172945A1, “METHODS OF TREATING BREAST CANCER” (Mitchell Woods Pharmaceuticals, Inc., priority 2014, published 2017).

How the values were obtained:
Type in all cases: cell-based, Human
MDA-MB-231 cells [1] = assay: [3H]-thymidine incorporation assay in MDA-MB-231 cells; settings: serum-starved, 24 hours
Procedure: (§1) Cells were seeded in 12-well plates at approximately 50,000 cells/well and incubated at 37° C. After 24 hours, the wells were rinsed with PBS and replaced with serum-free medium containing the appropriate concentration of the test compounds. After another 24-hour incubation at 37° C., 1 μCi of [^3H]-thymidine was added to each well and incubated at 37° C. for 16 hours. […] The lysate was then mixed with 3 mL of liquid scintillation cocktail (Beckman Coulter, Inc., Brea, Calif.), and radioactivity was measured by liquid scintillation counting using Beckman Coulter LS6000IC Scintillation Counter. Data are shown as CPM incorporated compared to the control cells.
(§2) CF-7 cells and MDA-MB-231 cells were seeded out on E-Plates and allowed to settle. Cells were stimulated with MNF. Cellular proliferation and adherence was measured every 15 minutes using xCELLigence RTCA station. The serum-starved cells were incubated with various amounts of (R,R′)-MNF concentrations for 24 hours and the levels of [3H]thymidine incorporation were measured.

MCF-7 cells [2] = assay: [3H]-thymidine incorporation assay in MCF-7 cells; settings: serum-starved, 24 hours
Procedure: as §1, §2

ERK [3] = assay: basal phosphorylation levels of ERK in MCF-7 cells; settings: serum starved for 3 hours, compound for 15 minutes
Procedure: (§3) Levels of ERK1/2 and its phosphorylated forms were determined using PathScan ELISA kits according to manufacturer's protocol (Perkin Elmer Alphascreen Surefire ERK1/2 assay kit, cat no. TGRES500).
(§4) (R,R′)-MNF decreased basal phosphorylation levels of ERK. MCF-7 and MDA-MB-231 cells were serum starved for 3 hours and subjected to compound of interest or vehicle for 15 minutes. The levels of phosphorylated ERK were determined in MNF-treated MCF-7 and MDA-MB-231 cells.

ERK [4] = assay: basal phosphorylation levels of ERK in MDA-MB-231 cells; settings: serum starved for 3 hours, compound for 15 minutes
Procedure: as §3, §4

MCF-7 cells [5] = assay: proliferation of MCF-7 cells (xCELLigence RTCA)
Procedure: as §2, with “measured. MNF inhibited the incorporation of radiolabelled thymidine in both CF-7 cells and MDA-MB-231 cells.” for “measured.”

MCF-7 cells [6] = assay: cell cycle analysis in MCF-7 cells
Procedure: (§5) Cell cycle distributions were performed by flow cytometry on propidium iodide-stained nuclei prepared by the NEVI technique. DNA histograms of at least 10,000 cells acquired on a Becton-Dickinson FACScanto II (BD Biosciences, San Jose, Calif.) were deconvoluted using the Multicycle program (Phoenix Flow Systems) for estimates of the percentage of cells in the G0/1, S, and G2+M phases of the cell cycle. Debris and doublets were removed from the analysis by software algorithms.

MDA-MB-231 cells [7] = assay: cell cycle analysis in MDA-MB-231 cells
Procedure: as §5

[8] = system: Multidrug resistance protein (Mdr); assay: expression of Multidrug resistance protein (Mdr) in MCF-7 cells
Excerpt: As shown therein, MNF reduces the expression of Multidrug resistance protein (Mdr) in MCF-7 cells.

Cyclin D1 [9] = assay: expression of Cyclin D1 in MCF-7 cells
Procedure: (§6) Cells were lysed with RIPA buffer containing EGTA and EDTA (Boston BioProducts, Ashland, Mass.). The lysis buffer was mixed with a protease inhibitor cocktail (Sigma-Aldrich). Protein concentrations were measured using the bicinchoninic acid reagent (Thermo-Pierce Biotechnology, Inc., Rockford, Ill.). Proteins (20 μg/well) were separated on 4-12% precast gels (Invitrogen, Carlsbad, Calif.) using SDS-polyacrylamide gel electrophoresis under reducing conditions and were electrophoretically transferred onto polyvinylidene fluoride membrane (Invitrogen). Western blots were performed according to standard methods. The visualization of immunoreactive bands was performed using the ECL Plus Western Blotting Detection System (GE Healthcare, NJ) and their quantification was done by volume densitometry using Image J software and normalization to β-actin. The primary antibody for β2-APv was obtained from Enzo Life Sciences, Inc. (Cat. # AD 1-905-742-100, Farmingdale, N.Y.); rabbit anti-phospho-Akt (Ser-473), phospho-ERK1/2, total Akt and total ERK2 were from Cell Signaling Technology (Beverly, Mass.), and anti-P-actin was from Abeam (Cambridge, Mass.). The antibodies were used at a dilution recommended by the manufacturer.
(§7) The effect of MNF on expression of the cell cycle regulatory proteins Cyclin D1 and Cyclin B1 in MCF-7 cells and MDA-MB-231 cells was evaluated. […]

Cyclin B1 = assay: expression of Cyclin B1 in MCF-7 cells
Procedure: as §6, §7

MDA-MB-231 cells [10] = assay: proliferation of MDA-MB-231 cells (xCELLigence RTCA)
Procedure: as §2, with “measured. MNF inhibited the incorporation of radiolabelled thymidine in both CF-7 cells and MDA-MB-231 cells.” for “measured.”

Cyclin D1 [11] = assay: expression of Cyclin D1 in MDA-MB-231 cells
Procedure: as §6, §7

Row | Compound | blocking of the inhibitory effect of MNF on [3H]thymidine incorporation (MDA-MB-231 cells [1]; with MNF) | blocking of the inhibitory effect of MNF on [3H]thymidine incorporation (MCF-7 cells [2]; with MNF) | levels of [3H]thymidine incorporation (MDA-MB-231 cells [1]) | basal phosphorylation levels of ERK (ERK [3]) | basal phosphorylation levels of ERK (ERK [4]) | growth of cancer cells (MCF-7 cells [5]) | proliferation (MCF-7 cells [5]) | arrest of the cell cycle (MCF-7 cells [6]) | arrest of the cell cycle (MDA-MB-231 cells [7]) | expression of Multidrug resistance protein (Mdr) [8] | expression of Cyclin D1 (Cyclin D1 [9]) | expression of Cyclin B1 (Cyclin B1) | growth of cancer cells (MDA-MB-231 cells [10]; MDA-MB-231 cells) | proliferation (MDA-MB-231 cells [10]; MDA-MB-231 cells) | sensitivity to MNF compared with MCF-7 cancer cells (MDA-MB-231 cells [10]; MDA-MB-231 cells vs MCF-7 cells) | expression of Cyclin D1 (Cyclin D1 [11]) | levels of [3H]thymidine incorporation (MCF-7 cells [2])
1 | Cc1ccc(OCC(O)C(C)NC(C)C)c2c1CCC2 (centres unmarked) [ICI 118,551, 3-(isopropylamino)-1-[(7-methyl-4-indanyl)oxy]butan-2-ol, reference compound] | not | not | – | – | – | – | – | – | – | – | – | – | – | – | – | – | –
2 | COc1ccc(C[C@@H](C)NC[C@H](O)c2cc(O)cc(O)c2)c2ccccc12 [MNF, (R,R′)-4′-methoxy-1-naphthylfenoterol] | – | – | inhibited | decreased | decreased | inhibit | inhibit | G2/M phase arrested cell population was increased | arrested at G1/S phase | reduces | unchanged | reduced | inhibit | inhibit | significantly more sensitive | reduced | inhibited
